Experimental data reported in PubChem BioAssay (NCI).
Where “and” joins values, the source holds several entries; their conditions need not be identical. Equal values may be shown once.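 48-hour exposure; five concentrations; linearly interpolated endpoints. Here, GI50 denotes the concentration required for 50% inhibition of growth. TGI: concentration producing complete growth inhibition.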

Tests used:
Assay in all cases: growth of human tumour cells (NCI), 48 h
[1] = test system: BT-549 breast
[2] = test system: MDA-MB-435
[3] = test system: SR leukemia
[4] = test system: NCI-H226 lung
[5] = test system: SK-MEL-28 melanoma
[6] = test system: SF-295 CNS
[7] = test system: SK-OV-3 ovarian
[8] = test system: SK-MEL-2 melanoma
[9] = test system: HS 578T breast
[10] = test system: A498 renal

In the case of `N#CC(c1ccccc1)N1CCCN(C(C#N)c2ccccc2)C1c1ccccc1O` (stereo not given), the TGI [1] was greater than 100 µM, the TGI [2] was greater than 100 µM and the TGI [3] was greater than 100 µM. It also gave a TGI [4] greater than 100 µM, a TGI [5] greater than 100 µM and a TGI [6] greater than 100 µM. It also gave a TGI [7] greater than 100 µM, a TGI [8] greater than 100 µM and a TGI [9] greater than 100 µM. It also gave a TGI [10] greater than 100 µM.
`O=[n+]1c2c(n([O-])c3ccccc31)-c1cccc3cccc-2c13` gave a TGI [2] greater than 100 µM, a TGI [3] greater than 100 µM and a TGI [4] greater than 100 µM. It also gave a TGI [6] greater than 100 µM, a TGI [9] greater than 100 µM and a TGI [10] greater than 100 µM.
`O=[N+]([O-])c1ccc2c(c1)c(N=NC(=S)NC1CCCCC1)c(O)n2CN1CCOCC1` showed a TGI [1] of 20.8 µM, a TGI [2] of 20 µM and a TGI [3] of 21.5 µM. It also gave a TGI [4] of 66 µM, a TGI [5] of 25.6 µM and a TGI [6] of 16.6 µM. It also gave a TGI [7] of 25.9 µM, a TGI [8] of 25.9 µM and a TGI [9] of 45.8 µM. The TGI [10] was 17.5 µM.
`CCC(C)C1NC(=O)C2CCCN2C(=O)C(CC2CO2)OC(=O)CCNC(=O)C(C)N(C)C(=O)C(C(C)C)N(C)C1=O` (stereo not given) gave a TGI [1] greater than 100 µM, a TGI [2] greater than 100 µM and a TGI [4] greater than 17.1 µM. It also gave a TGI [5] greater than 100 µM, a TGI [7] greater than 100 µM and a TGI [8] of 0.0341 µM. For the same compound, the TGI [9] was greater than 100 µM and the TGI [10] was greater than 100 µM.
For `COC(=O)C1C(C)N1C` (stereo not given), the TGI [4] was greater than 100 µM, the TGI [5] was greater than 100 µM and the TGI [7] was greater than 100 µM.
With `Cc1cc(O)c(C(C)C)cc1CN1CCCCC1` the TGI [1] was greater than 100 µM, the TGI [2] was greater than 100 µM and the TGI [4] was greater than 100 µM. It also gave a TGI [5] greater than 100 µM, a TGI [6] greater than 100 µM and a TGI [7] greater than 100 µM. For the same compound, the TGI [9] was greater than 100 µM and the TGI [10] was greater than 100 µM.
In the case of `CC[C@@]1(O)C(=O)OCc2c1cc1n(c2=O)Cc2c-1nc1ccc(O)cc1c2CC[Si](C)(C)C`, the TGI [1] was 4.09 µM, the TGI [2] was 0.495 µM and 0.887 µM and the TGI [3] was less than 0.001 µM. It also gave a GI50 [4] of less than 0.001 µM, a GI50 [5] of 0.107 µM and a TGI [5] greater than 100 µM. The TGI [6] was 0.0296 µM, the GI50 [8] was 0.0742 µM and the TGI [8] was 0.576 µM and 1.17 µM. It also gave a TGI [10] of 0.0279 µM.
Work on `O=C(O)C(CSC(c1ccccc1)(c1ccccc1)c1ccccc1)N=Cc1cccs1` (stereo not given) yielded a TGI [1] greater than 27.5 µM, a TGI [2] of 1.21 µM and a TGI [3] greater than 100 µM. For the same compound, the TGI [4] was greater than 96.7 µM, the TGI [5] was greater than 100 µM and the TGI [6] was greater than 100 µM. The TGI [7] was greater than 67.5 µM, the TGI [8] was 27.4 µM and the TGI [9] was greater than 34.2 µM. It also gave a TGI [10] greater than 96.8 µM.
`COc1ccc(N=c2ssc(C(=S)Nc3ccc(OC)cc3)c2S)cc1` was tested, and the TGI [1] was greater than 100 µM, the TGI [2] was greater than 100 µM and the TGI [3] was greater than 100 µM. The TGI [4] was greater than 100 µM, the TGI [5] was greater than 100 µM and the TGI [6] was greater than 100 µM. For the same compound, the TGI [7] was greater than 100 µM, the TGI [8] was greater than 100 µM and the TGI [9] was greater than 100 µM. For the same compound, the TGI [10] was greater than 100 µM.
`COC(=O)C1C(O)CCC2CN3CCc4c([nH]c5cccc(OC)c45)C3CC21` (stereo not given) showed a TGI [1] greater than 100 µM, a TGI [2] greater than 100 µM and a TGI [3] greater than 100 µM. It also gave a TGI [4] greater than 100 µM, a TGI [5] greater than 100 µM and a TGI [6] greater than 100 µM. For the same compound, the TGI [7] was greater than 100 µM, the TGI [8] was greater than 100 µM and the TGI [9] was greater than 100 µM. The TGI [10] was greater than 100 µM.
In the case of `CCOC(=O)C1CCn2c(nc3c2c(=O)n(C)c(=O)n3C)S1` (stereo not given), the TGI [3] was greater than 100 µM, the TGI [4] was greater than 100 µM and the TGI [6] was greater than 100 µM. It also gave a TGI [7] greater than 100 µM and a TGI [8] greater than 100 µM.
Work on `C[C@]12CCC(=O)C=C1CC[C@@H]1[C@@H]2[C@@H](O)C[C@@]2(C)[C@H]1CC[C@]2(O)C(=O)CO` yielded a TGI [1] greater than 100 µM, a TGI [2] greater than 100 µM and a TGI [3] greater than 100 µM. It also gave a TGI [4] greater than 100 µM, a TGI [5] greater than 100 µM and a TGI [6] greater than 100 µM. For the same compound, the TGI [7] was greater than 100 µM, the TGI [8] was greater than 100 µM and the TGI [9] was greater than 100 µM. It also gave a TGI [10] greater than 100 µM.
Work on `O=C1c2cc3c(cc2-c2c1c1ccc(Cl)cc1c(=O)n2C[C@H](O)[C@@H](O)[C@H](O)CO)OCO3` yielded a GI50 [1] of 0.0301 µM, a TGI [1] of 1.36 µM and a GI50 [5] of 0.0997 µM. It also gave a TGI [5] of 1.16 µM, a GI50 [8] of 0.194 µM and a TGI [8] of 0.432 µM. The GI50 [9] was 0.328 µM, the TGI [9] was greater than 100 µM and the GI50 [10] was 0.0673 µM. For the same compound, the TGI [10] was 0.207 µM.
